This is an account of results in patent US20200079860A1, “METHODS AND COMPOSITIONS FOR TUMOR THERAPY” (MEMORIAL SLOAN KETTERING CANCER CENTER, priority 2015, published 2020).

The experiment relates to B16F10 cells. Nature of the experiment: mouse bilateral tumor model (B16 murine melanoma); one tumor injected, contralateral non-injected. Type of experiment: in vivo, C57BL/6 mice.

Procedure: By injecting only one of two tumors throughout the course of the experiment it is possible to separate the effect of the injected tumor from the “abscopal” effect on the distant non-injected tumor. Once treatment begins, tumors are measured twice weekly for at least 90 days.
Also, unless indicated otherwise, controls were treated with isotype control antibodies and vehicle only. Furthermore, unless indicated otherwise, all experiments were performed using the mouse bilateral tumor model described below and summarized in FIG. 2.
The animals used had large tumors in two opposite flanks. One tumor was injected while the second remained non-injected (FIG. 2), allowing separate analysis of the effect at the injected tumor from the so-called ‘abscopal’ effect at the non-injected tumor, in order to understand how this treatment could benefit patients with metastatic cancer. […] C57BL/6 mice were initially implanted with 5×10^5 syngeneic B16F10 cells intra-dermally in bilateral flanks. 8 days post tumor cell implantation, when bilateral tumors measured ˜0.5 cm, intratumoral (IT) treatment with various test agents was initiated together with intraperitoneal (IP) anti-PD-1 mAb. […]
8 days post tumor cell implantation, when bilateral tumors measured ˜0.5 cm, intratumoral (IT) treatment with agents selected to activate APCs was initiated together with intraperitoneal (IP) anti-PD-1 mAb. […]

Take PolyIC: under “FIG. 35B”, the “substitution for MPL in the treatment” value was “can be substituted for MPL, albeit possibly with slightly reduced activity”.
Consider `O=C1[O][Pt]2([NH][C@@H]3CCCC[C@H]3[NH]2)[O]C1=O` [oxaliplatin], for which the “survival on concurrent addition of systemic chemotherapy” value (added IP to intratumoral MPL, anti-IL10R, and anti-CD40) is listed as “increased survival”.
